Test results taken from paper PMC10115881, “Disrupting the α-synuclein-ESCRT interaction with a peptide inhibitor mitigates neurodegeneration in preclinical models of Parkinson’s disease” (Nature Communications, 2023).

How the values were obtained:
A53T a-syn or EV rats = assay: AAV-A53T a-syn rat model, low titer; type: in vivo
From the text: Third, we used a preclinical rat model of PD in which SN degeneration is induced by AAV vector-mediated expression of human mutant A53T a-syn[18],[45]–[48] (Fig. 5A). […] (Fig. 5B, C). […] Furthermore, overexpression of A53T a-syn was associated with a reduction in LAMP1 positive puncta in the SN which was restored with PDpep1.3 (Figs. 5E, S5E). […] Forelimb asymmetry in the cylinder test is a behavioral impairment associated with SN degeneration which models bradykinesia, the cardinal motor abnormality in PD[49].
Adult female Sprague-Dawley rats (250–280 g; Envigo) were pair-housed in cages with wood bedding and had access to food and water ad libitum. The animal colony was maintained in a regular 12 h light/dark cycle. All procedures were approved by the University Health Network Animal Care Committee in accordance with guidelines and regulations set by the Canadian Council on Animal Care (AUP #3818).
Animals were secured in a stereotactic frame under isoflurane/oxygen anesthesia and ketoprofen (5 mg/kg) analgesia. The surgical site was shaved and sterilized with iodine/betadine prior to making a 2 cm incision along the midline. The scalp was exposed and a unilateral injection targeting the SN was performed at coordinates AP −5.2 mm, ML −2 mm and DV −7.5 mm with respect to the bregma as a point of reference. […]
Immunofluorescence staining for a-syn, pS129 a-syn, TH, and LAMP1 was performed by washing free-floating sections with PBS-T (0.1% Tween-20 or 0.2% Triton-X-100) three times for 10 min each at room temperature. […] Sections were then mounted onto glass slides and allowed to dry and then Dako fluorescence mounting medium (Agilent) was applied, followed by coverslips.
Confocal images of immunofluorescent staining of midbrain sections were processed using HALO software (Indica Labs), which is a well validated tool for automatic quantification of neurons in brain tissue sections[70]–[72]. […] Levels of total a-syn were assessed in this ROI by measuring the area and intensity of anti-a-syn staining. […]

cathepsin D = assay: Cathepsin D fluorescence in rat cortical neurons; type: cell-based; settings: A53T a-syn
From the text: Pregnant rats (E17) of the Sprague-Dawley strain were purchased from Envigo. Embryos were surgically removed from the mothers and cortices dissected in Hanks Balanced salt solution (Gibco). The meninges were removed, and cells were dissociated using a papain dissociation system (Worthington) before being resuspended in Neurobasal medium A supplemented with antibiotic-antimycotic solution (Gibco), L-glutamine substitute (GlutaMAX™; Gibco) and factor B27 (Gibco). […]
After fixation, cells were permeabilized with 0.2% Triton-X-100 for 15 min, washed three times with PBS and then incubated with blocking solution (1% BSA, 22.52 mg/mL glycine, 0.1% Tween-20 in PBS or 0.4% saponin, 1% BSA, and 5% goat or donkey serum in PBS) for 1 h. […] Following another three washes with PBS, nuclei were counterstained with DAPI (ThermoFisher) and then coverslips were mounted on slides using Dako fluorescence mounting medium (Agilent) and sealed using clear nail varnish.
Confocal images of primary cortical neurons, iPSC-derived dopaminergic neurons, and LAMP1 staining within the SN were processed using Imaris software (Oxford instruments). […] Mean pixel intensity per GFP^+ cell (for experiments using GFP-tagged peptides) or RFP^+ cell (for experiments using RFP-tagged peptides) was calculated for a-syn or LAMP1 signal using the software’s surfaces module. […]

DEEIERQLKALG [PDpep1.3]
Effect on LAMP1 positive puncta in SN (A53T a-syn or EV rats): restored | Effect on total a-syn positive area in SN (A53T a-syn or EV rats): significant reduction in total a-syn positive area in the SN | a-syn mean fluorescence intensity in TH+ and GFP+ SN cells (A53T a-syn or EV rats; n = 5–7 rats/group): 0.335 ± 0.025 RFU | Effect on cathepsin D (cathepsin D): reduced to control levels
